Values of other authors in paper PMC7933317 (Probiotics and antimicrobial proteins, 2021).

Test system: human red blood cells (RBCs)
Details: over the same concentration range; ref [30]

ALWKKLLKKLLKSAKKLG [C18G]
hemolysis of human RBCs: < 10%
